We go through two molecules from US6583179B2, “Substituted aminoalkylamide derivatives as antagonists of follicle stimulating hormone” (Ortho-McNeil Pharmaceutical, Inc., priority 1999, dated 2003).

Test [1] deals with mature cycling female Wistar rats. The experiment in a line: Interruption of 4-day estrus cycle. The test is classed as in vivo, rat. Conditions: 20 mg/kg BID oral through 2 estrus cycles; for Estradiol Concentration / Progesterone Concentration: blood on morning of estrus; for # Ovulated Eggs: eggs in the oviduct. As to the method:
The estrus cycles of mature cycling female Wistar rats (250 g) were monitored for 2 consecutive estrus cycles to select animals with regular 4-day estrus cycles. The animals were randomly assigned to treatment groups on the morning of estrus. Starting on the morning of estrus and continuing through 2 estrus cycles, the animals orally dosed with vehicle or test compound at a concentration of 20 mg/kg; BID. At the end of the second estrus cycle, blood samples were collected by orbital puncture on the morning of estrus. The animals were then sacrificed, and the number of ovulated eggs in the oviduct were counted.

For test [2], the target named is T1, human FSH receptor (Homo sapiens, UniProt P23945).
T1 construct: expressed in transfected cells; host or cells: Chinese Hamster Ovary cells (K-1; ATCC), line rhFSHR-cLUC
T1 sequence (P23945 18-695): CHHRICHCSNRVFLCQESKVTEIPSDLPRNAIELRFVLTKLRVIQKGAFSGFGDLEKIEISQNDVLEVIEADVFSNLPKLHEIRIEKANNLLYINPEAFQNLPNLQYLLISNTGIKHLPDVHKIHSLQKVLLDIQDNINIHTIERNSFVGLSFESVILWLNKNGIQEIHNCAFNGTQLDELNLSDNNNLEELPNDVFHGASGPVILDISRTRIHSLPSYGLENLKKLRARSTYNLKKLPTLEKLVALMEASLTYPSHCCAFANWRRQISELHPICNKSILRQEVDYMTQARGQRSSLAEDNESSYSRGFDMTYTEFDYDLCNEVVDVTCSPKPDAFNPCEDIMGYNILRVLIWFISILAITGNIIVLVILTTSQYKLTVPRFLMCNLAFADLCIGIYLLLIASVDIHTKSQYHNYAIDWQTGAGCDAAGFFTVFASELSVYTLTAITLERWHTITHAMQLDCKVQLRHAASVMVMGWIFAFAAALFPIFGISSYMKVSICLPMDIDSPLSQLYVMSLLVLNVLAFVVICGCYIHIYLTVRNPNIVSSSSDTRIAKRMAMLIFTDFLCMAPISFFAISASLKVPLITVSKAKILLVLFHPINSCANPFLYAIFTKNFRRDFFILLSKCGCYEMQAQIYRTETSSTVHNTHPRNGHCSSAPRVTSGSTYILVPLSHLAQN
Description: hFSHR CHO cAMP assay (rhFSHR-cLUC cells, FSH-stimulated cAMP, radioimmunoassay). The test is classed as cell-based. Conditions: inhibition of cAMP produced by EC70 dose of FSH (4.85 nM); maximum concentration 50 μM. The text has this: Minimum Essential Medium-Alpha (MEM-alpha), fetal bovine serum (FBS), penicillin, streptomycin, geneticin, trypsin-EDTA, Hanks' Balanced Salt Solution (no Calcium chloride, Magnesium chloride, Magnesium sulfate, or phenol red; Ca-Mg free HBSS) were purchased from Gibco BRL (Gaithersburg, Md.). The cells used for the FSH bioassay (rhFSHR-cLUC) were Chinese Hamster Ovary cells (K-1; ATCC) stably transformed with human FSH receptor (pSVK-FSHr) and a cAMP luciferase reporter gene (responsive CGα-180LUC). Follicle Stimulating Hormone (Metrodin; Fertinex) was purchased from Serono, Ltd. (Norwell, Mass.).
The rhFSHR-cLUC cell cultures were maintained in MEM-Alpha supplemented with 10% heat-inactivated FBS (HIFBS), 100 U/ml penicillin, 100 μg/mL streptomycin, and included 0.1 g/L geneticin for stable cell selection.
Forty-eight hours after the cells were plated in sterile 96-well culture plates (Corning, Corning, N.Y.) the spent media was removed and 50 μl assay media (modified growth media with 2% HIFBS) containing 2 mM IBMX (3-isobutyl-1-methyl-xanthine) was added to the cells. Compounds (25 μl) in the appropriate concentration were added followed 5 minutes later by an EC70 dose of FSH (25 μl; 160 ng/ml; 4.85 nM). After 10 minutes @ 22.5° C. (room temperature) the reaction was terminated by addition of 25 μL 0.5 N hydrochloric acid to each well. The amount of cAMP produced was measured by radioimmunoassay in a FlashPlate (DuPont, Boston, Mass.). To each flash plate 60 μL flash plate buffer was added followed by 40 μL acidified cell sample or cAMP standard, followed with the addition of 100 μl ^125l-cAMP trace. The FlashPlates were sealed, incubated overnight @ room temperature, and counted in a Packard TopCount (Packard Instrument Co., Meriden, Conn.). The cAMP radioimmunoassay results were calculated using DPM conversion and log-logit transformation of % binding (Excel program).
Test compounds were solubilized in 30% dimethyl sulfoxide (DMSO) at a concentration of 10 mM before diluting to appropriate concentrations in assay medium. The final DMSO concentration in the treated cells and in the control cells was 0.75%.
For individual experiments, a set of samples were tested including a vehicle control (assay buffer), a reference compound (hFSH) at a range of concentrations designed to elicit a minimal to maximal response, and several concentrations of test compounds together with an EC70 concentration of standard (hFSH challenge). Each compound was performed in duplicates for the primary evaluation and quadruplicates for the dose-ranging experiments. The cAMP radioimmunoassay raw data (pmol) were calculated to provide average pmol cAMP produced/ml and the percent inhibition was calculated as shown below.
% Inh=[1−(Avg.pmoltest compound+standard)/(Avg.pmolstandard)]×100
EC50 values were calculated from an analysis of the concentration-inhibition data using a linear analysis of the data transformed to a log-logit format.

Test [3] has as its system immature male Wistar rats. The experiment in a line: Effects on spermatogenesis in immature male rats. The test is classed as in vivo, rat. The note with it: 20 mg/kg BID for 25 days; for Serum Testosterone (t = 3 hr, d = 25): 3 hr after dosing; for Mating Sperm: animals with sperm / animals. As to the method:
Twenty-one day old immature male Wistar rats (Charles River) were treated with FSH antagonist at a concentration of 20 mg/kg BID for 25 days. On the penultimate day of treatment, blood samples were collected by orbital puncture immediately prior to oral dosing, and 3 hours after dosing into Vacutainers containing EDTA. On the last day of treatment, blood samples were again collected prior to time of compound administration. The concentrations of LH, FSH and testosterone were measured in the plasma. Testosterone was measured using a Coat-A-Count kit (Diagnostic Products Corp.) and luteinizing hormone and follicle stimulating hormone concentrations were measured following previously established. At the end of the treatment period, the animals were sacrificed, testes and prostates were collected and weighed, and the testes were prepared for histological examination. The presence of sperm in testes were evaluated by hematoxylin and eosin staining, and in separate slides with a BERG stain (REF, 1963).

For `Cc1ccccc1-c1ccc(S(=O)(=O)N(CC(=O)NCc2ccc(CN)cc2)C[C@@H](C)c2ccccc2)cc1` [Compound 215], in test [1], the “Estradiol Concentration” value is given as 22.2 ± 4.2, the “Progesterone Concentration” value came out at 2.6 ± 0.6 and the “# Ovulated Eggs” value stood at 16.3. This molecule returned an EC50 in test [2] of 80 nM. In test [3], the “Prostate Weight” value came out at 1.8 ± 0.1; the “Testes Weight” value turned out to be 8.7 ± 0.5; the “Serum Testosterone (t = 3 hr, d = 25)” value was found to be 4.9 ± 0.7; the “Mating Sperm” value is 1/4.

As to `C[C@@H](CN(CC(=O)NCc1ccc(CN)cc1)S(=O)(=O)c1ccc(-c2ccccc2Cl)cc1)c1ccccc1` [Compound 198], in test [1], the “Estradiol Concentration” value came to 20.1 ± 4.4, the “Progesterone Concentration” value was 3.6 ± 0.9 and the “# Ovulated Eggs” value turned out to be 14.0. Also, the response in test [2] was half-maximal at 40 nM (EC50). In test [3], the “Prostate Weight” value is on record as 1.6 ± 0.2; the “Testes Weight” value is recorded as 8.8 ± 0.2; the “Serum Testosterone (t = 3 hr, d = 25)” value amounted to 3.6 ± 0.6; the “Mating Sperm” value is given as 3/4.
